Measurements from US20130204033A1, “ANTIPROLIFERATIVE COMPOUNDS, CONJUGATES THEREOF, METHODS THEREFOR, AND USES THEREOF” (Medarex, Inc., priority 2009, published 2013).
Like-named read-outs stand apart in the source and are kept apart here.

Assays:
Format in all cases: cell-based, human
Hep3B = test: 3H thymidine proliferation assay, Hep3B
Protocol: (§1) This example generally describes the procedures used to assay the antiproliferative activity of compounds of this invention or their conjugates. Human tumor cell lines were obtained from the American Type Culture Collection (ATCC), P.O. Box 1549, Manassas, Va. 20108, USA, and cultured according to instruction from the ATCC. Cells were seeded at 1.0×10^3 or 1.0×10^4 cells/well in 96-well plates for 3 h for ATP assays or ^3H thymidine assays, respectively. 1:3 serial dilutions of free (unconjugated) compounds or their conjugates were added to the wells. Plates were allowed to incubate for 24 to 72 h. The ^3H thymidine plates were pulsed with 1.0 μCi of ^3H-thymidine per well for the last 24 hours of the total incubation period, harvested, and read on a Top Count Scintillation Counter (Packard Instruments, Meriden, Conn.). ATP levels in the ATP plates were measured using the […]-GLO® Luminescent Cell Viability kit following the manufacturer's manual and read on a GLOMAX® 20/20 luminometer (both from Promega, Madison, Wis., USA). The EC50 values—the concentration at which an agent inhibits or reduces cell proliferation by 50% —were determined using PRISM™ software, version 4.0 (GraphPad Software, La Jolla, Calif., USA).
(§2) Using the ^3H thymidine or the ATP luminescence assay, or both, the activities of compounds of this invention were assayed against the following cancer cell lines: HCT-15 (colorectal cancer, multi-drug resistant (MDR)); Hep3B (liver cancer); LNCaP (prostate cancer, androgen receptor positive (AR^+)); MDA-MB-231 (breast cancer, estrogen receptor, progesterone receptor, and Her2 negative (triple negative)); A2058 (melanoma); U-87 MG (glioblastoma); NCI-H460 (NSCLC); A549 (NSCLC); HPAC (pancreatic cancer, primary); PC3 (prostate cancer, AR); BT474 (breast cancer, Her2 highly positive (Her2hi)); SKOV3 (ovarian cancer, Her2hi); 786-O (renal cancer); UO-31 (renal cancer, MDR); NCI-H740 (SCLC); DMS53 (SCLC); SK-BR3 (breast cancer, Her2hi); ZR-75 (breast cancer, estrogen receptor positive); OVCAR3 (ovarian cancer); HL-60 (APL); OVCAR8/Adr (ovarian cancer, MDR); CEM-Cl (ALL); Nomo-1 (AML); RPMI-8226 (MM)); Raji (lymphoma); SW-480 (colorectal cancer, metastatic); SW-620 (colorectal cancer); and H226 (lung cancer). (Not all compounds were assayed against all cell lines.)
(§3) Table 2 provides the data for proliferation assays using the ^3H thymidine method, with an incubation period of 72 h.

LNCaP [1] = test: 3H thymidine proliferation assay, LNCaP
Protocol: as §1, §2, §3

A549 [2] = test: 3H thymidine proliferation assay, A549
Protocol: as §1, §2, §3

BT474 [3] = test: 3H thymidine proliferation assay, BT474
Protocol: as §1, §2, §3

SKOV3 = test: 3H thymidine proliferation assay, SKOV3
Protocol: as §1, §2, §3

HL-60 = test: 3H thymidine proliferation assay, HL-60
Protocol: as §1, §2, §3

OVCAR8 = test: 3H thymidine proliferation assay, OVCAR8
Protocol: as §1, §2, §3

LNCaP [4] = test: ATP luminescence proliferation assay, LNCaP
Protocol: as §1, §2
(§4) Table 3 provides the data for the ATP luminescence proliferation assays, with an incubation period of 48, 72, or 96 h, as noted.

MDA-MB-231 = test: ATP luminescence proliferation assay, MDA-MB-231
Protocol: as §1, §2, §4

A549 [5] = test: ATP luminescence proliferation assay, A549
Protocol: as §1, §2, §4

BT474 [6] = test: ATP luminescence proliferation assay, BT474
Protocol: as §1, §2, §4

Nomo-1 = test: ATP luminescence proliferation assay, Nomo-1
Protocol: as §1, §2, §4

NCI-H740 = test: ATP luminescence proliferation assay, NCI-H740; settings: H740, 72 h incubation
Protocol: as §1, with “Calif., USA). […]” for “Calif., USA).”
as §4

[7] = Homo sapiens, Hep3B, read-out: EC50, Hep3B, 3H thymidine method, 72 h incubation
[8] = Homo sapiens, LNCaP, read-out: EC50, LNCaP, 3H thymidine method, 72 h incubation
[9] = Homo sapiens, A549, read-out: EC50, A549, 3H thymidine method, 72 h incubation
[10] = Homo sapiens, BT-474, read-out: EC50, BT474, 3H thymidine method, 72 h incubation
[11] = Homo sapiens, SK-OV-3, read-out: EC50, SKOV3, 3H thymidine method, 72 h incubation
[12] = Homo sapiens, HL-60, read-out: EC50, HL-60, 3H thymidine method, 72 h incubation
[13] = Homo sapiens, OVCAR-8, read-out: EC50, OVCAR8, 3H thymidine method, 72 h incubation
[14] = Homo sapiens, 72 h, read-out: EC50 LNCaP (72 h), ATP luminescence, LNCaP, 72 h incubation
[15] = Homo sapiens, MDA-MB-231, 72 h, read-out: EC50 MDA-MB-231 (72 h), ATP luminescence, MDA-MB-231, 72 h incubation
[16] = Homo sapiens, A549, 48 h, read-out: EC50 A549 (48 h), ATP luminescence, A549, 48 h incubation
[17] = Homo sapiens, BT-474, 48 h, read-out: EC50 BT474 (48 h), ATP luminescence, BT474, 48 h incubation
[18] = Homo sapiens, NOMO-1, 48 h, read-out: EC50 Nomo-1 (48 h), ATP luminescence, Nomo-1, 48 h incubation
[19] = Homo sapiens, Hep3B, 3H thymidine method, 72 h incubation, read-out: EC50, Hep3B
[20] = Homo sapiens, LNCaP, 3H thymidine method, 72 h incubation, read-out: EC50, LNCaP
[21] = Homo sapiens, A549, 3H thymidine method, 72 h incubation, read-out: EC50, A549
[22] = Homo sapiens, BT-474, 3H thymidine method, 72 h incubation, read-out: EC50, BT474
[23] = Homo sapiens, SK-OV-3, 3H thymidine method, 72 h incubation, read-out: EC50, SKOV3
[24] = Homo sapiens, HL-60, 3H thymidine method, 72 h incubation, read-out: EC50, HL-60
[25] = Homo sapiens, OVCAR-8, 3H thymidine method, 72 h incubation, read-out: EC50, OVCAR8
[26] = Homo sapiens, ATP luminescence, 72 h incubation, read-out: EC50 LNCaP (72 h)
[27] = Homo sapiens, ATP luminescence, MDA-MB-231, 72 h incubation, read-out: EC50 MDA-MB-231 (72 h)
[28] = Homo sapiens, ATP luminescence, A549, 48 h incubation, read-out: EC50 A549 (48 h)
[29] = Homo sapiens, BT-474, ATP luminescence, BT474, 72 h incubation, read-out: EC50 BT474 (72 h)
[30] = Homo sapiens, ATP luminescence, Nomo-1, 72 h incubation, read-out: EC50 Nomo-1 (72 h)

| Compound | EC50 (Hep3B; [7]) [nM] | EC50 (LNCaP [1]; [8]) [nM] | EC50 (A549 [2]; [9]) [nM] | EC50 (BT474 [3]; [10]) [nM] | EC50 (SKOV3; [11]) [nM] | EC50 (HL-60; [12]) [nM] | EC50 (OVCAR8; [13]) [nM] | EC50 (LNCaP [4]; [14]) [nM] | EC50 (MDA-MB-231; [15]) [nM] | EC50 (A549 [5]; [16]) [nM] | EC50 (BT474 [6]; [17]) [nM] | EC50 (Nomo-1; [18]) [nM] | EC50 (Hep3B; [19]) [nM] | EC50 (LNCaP [1]; [20]) [nM] | EC50 (A549 [2]; [21]) [nM] | EC50 (BT474 [3]; [22]) [nM] | EC50 (SKOV3; [23]) [nM] | EC50 (HL-60; [24]) [nM] | EC50 (OVCAR8; [25]) [nM] | EC50 (LNCaP [4]; [26]) [nM] | further results |
| --- | --- | --- | --- | --- | --- | --- | --- | --- | --- | --- | --- | --- | --- | --- | --- | --- | --- | --- | --- | --- | --- |
| CC[C@H](C)[C@H](NC(=O)[C@H]1CCCCN1C)C(=O)N(COC(=O)CC(C)C)[C@H](C[C@@H](OC(C)=O)c1nc(C(=O)N[C@@H](Cc2ccc(N)cc2)CC(C)C(=O)O)cs1)C(C)C (some centres unmarked) [Compound 54] | 0.3 | 16 | 0.24 | 8.8 | 0.34 | 0.53 | 2.1 | 11 | 5.6 | 3 | 4.8 | 3.1 | – | – | – | – | – | – | – | – | – |
| CC[C@H](C)[C@H](NC(=O)[C@H]1CCCCN1C)C(=O)N(C)[C@H](C[C@@H](OC(C)=O)c1nc(C(=O)N[C@@H](Cc2ccc(N)cc2)CC(C)C(=O)O)cs1)C(C)C (some centres unmarked) [Compound 36] | 39 | 342 | 44 | > 100 | 32 | 107 | > 100 | > 300 | 9.6 | 1.9 | ~120 | 34 | – | – | – | – | – | – | – | – | – |
| Nc1ccc(C(=O)Nc2ccc3[nH]c(C(=O)N4C[C@@H](CCl)c5c4cc(O)c4ccccc54)cc3c2)cc1 [CBI, reference compound] | – | – | – | – | – | – | – | – | – | – | – | – | 0.02 | 0.051 | 0.072 | 1.2 | 0.047 | 0.027 | 0.16 | 3.3 | EC50 (MDA-MB-231; [27]): 3.1 nM; EC50 (A549 [5]; [28]): 3 nM; EC50 (BT474 [6]; [29]): 5.5 nM; EC50 (NCI-H740; Homo sapiens): 2.2 nM; EC50 (Nomo-1; [30]): 0.37 nM |
| COc1cccc2c1C(=O)c1c(O)c3c(c(O)c1C2=O)C[C@@](O)(C(=O)CO)C[C@@H]3O[C@H]1C[C@H](N)[C@H](O)[C@H](C)O1 [Dox, doxorubicin, reference compound] | – | – | – | – | – | – | – | – | – | – | – | – | 44 | 130 | 128 | 424 | 163 | 56 | 2040 | 592 | EC50 (MDA-MB-231; [27]): 518 nM; EC50 (A549 [5]; [28]): 149 nM; EC50 (BT474 [6]; [29]): 388 nM; EC50 (Nomo-1; [30]): 338 nM |
| CC[C@H](C)[C@H](NC(=O)[C@H]1CCCCN1C)C(=O)N(COC(=O)CC(C)C)[C@H](C[C@@H](OC(C)=O)c1nc(C(=O)N[C@@H](Cc2ccccc2)C[C@H](C)C(=O)O)cs1)C(C)C [Tub D, tubulysin D, reference compound] | – | – | – | – | – | – | – | – | – | – | – | – | – | – | – | – | – | – | – | – | EC50 (Hep3B; 3H thymidine method, 72 h incubation, read-out: EC50, Hep3B): 0.022 nM; EC50 (LNCaP [1]; 3H thymidine method, 72 h incubation, read-out: EC50, LNCaP): 0.36 nM; EC50 (A549 [2]; 3H thymidine method, 72 h incubation, read-out: EC50, A549): 0.014 nM; EC50 (BT474 [3]; 3H thymidine method, 72 h incubation, read-out: EC50, BT474): 0.51 nM; EC50 (SKOV3; 3H thymidine method, 72 h incubation, read-out: EC50, SKOV3): 0.039 nM; EC50 (HL-60; 3H thymidine method, 72 h incubation, read-out: EC50, HL-60): 0.032 nM; EC50 (OVCAR8; 3H thymidine method, 72 h incubation, read-out: EC50, OVCAR8): 0.17 nM; EC50 (LNCaP [4]; ATP luminescence, 72 h incubation, read-out: EC50 LNCaP (72 h)): 0.093 nM; EC50 (MDA-MB-231; ATP luminescence, MDA-MB-231, 72 h incubation, read-out: EC50 MDA-MB-231 (72 h)): 0.047 nM; EC50 (A549 [5]; ATP luminescence, A549, 48 h incubation, read-out: EC50 A549 (48 h)): 0.02 nM; EC50 (BT474 [6]; ATP luminescence, BT474, 72 h incubation, read-out: EC50 BT474 (72 h)): 0.021 nM; EC50 (NCI-H740): 0.022 nM; EC50 (Nomo-1; ATP luminescence, Nomo-1, 72 h incubation, read-out: EC50 Nomo-1 (72 h)): 0.013 nM |
